Laboratory results: patent US8481750B2 (Boehringer Ingelheim International GmbH, priority 2009, dated 2013)

Target: LFA-1 binding to ICAM-1 (Homo sapiens, UniProt P05107+P20701)
Assay: Inhibition of LFA-1 binding to ICAM-1 (LFA-1/Biotin-sICAM-1 AlphaScreen molecular assay)
Details: highest compound concentration 1 μM in 1% DMSO, 37° C., 90 minutes
Text: Assay to Determine Inhibition of LFA-1 Binding to ICAM-1
This assay protocol is designed to study the direct antagonism, by a test compound, of the interaction of ICAM-1 with the Leukointegrin CD18/CD11a (LFA-1).
The LFA-1/Biotin-sICAM-1 molecular assay measures the ability of test compounds to inhibit binding of LFA-1 to Biotinylated-sICAM using AlphaScreen technology (Ref: Wilson, J, Rossi, C P, Carboni, S, Fremaux, C, Perrin, D, Soto, C, Kosco-Vilbois, M, and Scheer, A: A Homogeneous 384-Well High-Throughput Binding Assay for a TNF Receptor Using Alphascreen Technology. J Biomol Screen 2003; 8:522-532) that uses TS2/4(anti-LFA-1)-custom conjugated AlphaLisa acceptor beads and streptavidin-coated donor beads from PerkinElmer. The assay was performed in white OptiPlates-384 in a volume of 60 μL using assay buffer (Dulbecco's PBS containing calcium and magnesium, 2 mM MgCl2, 0.1 mM PMSF, 0.1% BSA, pH 7.1). To each well, Biotin-sICAM was added followed by purified LFA-1 (in buffer of 50 mM triethylamine, 150 mM NaCl, 1% beta octylglucoside, 2 mM MgCl2 neutralized to pH with 1M Tris-HCl, pH 7.5). For compound testing, compound was added in 5 uL to the above in 25 uL. LFA-1 and Biotin-sICAM-1 were used at concentrations that would yield a signal to background ratio of 8-10. The highest concentration of compound was 1 μM in 1% DMSO. Positive controls were wells without compound containing LFA-1, while blanks were wells without both compound and LFA-1. Plates were mixed and incubated at 37° C. for 90 minutes. This was followed by addition of 15 μL/well TS2/4-congugated acceptor beads diluted in PBS containing 0.1% BSA for a final concentration of 10 μg/mL. The plates were mixed and incubated in the dark for 30 minutes at room temperature followed by addition of 15 μL/well streptavidin-coated donor beads diluted in PBS containing 0.1% BSA at a final concentration of 15 μg/mL. The plates were mixed and incubated in the dark for 60 minutes at room temperature and then read on an EnVision Multilabel Reader using AlphaScreen 384-well OptiPlate protocol.

LFA-1 binding to ICAM-1, sequence (P20701 26-1170): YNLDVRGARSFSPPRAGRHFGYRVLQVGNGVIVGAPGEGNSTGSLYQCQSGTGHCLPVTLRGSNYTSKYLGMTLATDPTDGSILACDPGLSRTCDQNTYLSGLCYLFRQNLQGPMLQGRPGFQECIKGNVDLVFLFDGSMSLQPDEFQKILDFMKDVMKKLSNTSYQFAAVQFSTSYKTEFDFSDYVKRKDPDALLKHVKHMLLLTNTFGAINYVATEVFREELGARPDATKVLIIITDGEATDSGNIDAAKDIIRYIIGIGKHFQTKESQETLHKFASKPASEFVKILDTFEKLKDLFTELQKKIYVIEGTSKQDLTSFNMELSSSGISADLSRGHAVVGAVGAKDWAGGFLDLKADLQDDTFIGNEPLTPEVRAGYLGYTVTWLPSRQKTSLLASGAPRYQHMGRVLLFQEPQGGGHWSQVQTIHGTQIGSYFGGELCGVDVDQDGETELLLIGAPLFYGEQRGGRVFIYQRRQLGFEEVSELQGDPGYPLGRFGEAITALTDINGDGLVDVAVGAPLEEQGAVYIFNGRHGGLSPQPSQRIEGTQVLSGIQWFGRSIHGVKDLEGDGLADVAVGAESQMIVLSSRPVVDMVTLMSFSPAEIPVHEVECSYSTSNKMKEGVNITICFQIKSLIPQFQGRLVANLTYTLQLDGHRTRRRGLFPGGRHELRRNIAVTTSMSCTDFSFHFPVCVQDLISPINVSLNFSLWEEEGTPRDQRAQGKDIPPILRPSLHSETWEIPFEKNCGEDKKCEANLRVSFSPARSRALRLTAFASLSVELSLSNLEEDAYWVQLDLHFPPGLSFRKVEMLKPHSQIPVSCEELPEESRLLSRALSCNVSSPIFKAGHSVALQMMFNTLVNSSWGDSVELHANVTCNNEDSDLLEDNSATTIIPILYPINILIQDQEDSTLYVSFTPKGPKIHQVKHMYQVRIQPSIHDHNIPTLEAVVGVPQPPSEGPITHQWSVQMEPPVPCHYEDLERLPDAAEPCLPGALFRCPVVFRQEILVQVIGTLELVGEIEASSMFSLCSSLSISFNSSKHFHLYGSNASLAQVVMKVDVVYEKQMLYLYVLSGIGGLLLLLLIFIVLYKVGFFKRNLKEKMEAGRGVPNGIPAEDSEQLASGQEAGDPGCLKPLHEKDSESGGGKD
LFA-1 binding to ICAM-1, sequence (P05107 23-769): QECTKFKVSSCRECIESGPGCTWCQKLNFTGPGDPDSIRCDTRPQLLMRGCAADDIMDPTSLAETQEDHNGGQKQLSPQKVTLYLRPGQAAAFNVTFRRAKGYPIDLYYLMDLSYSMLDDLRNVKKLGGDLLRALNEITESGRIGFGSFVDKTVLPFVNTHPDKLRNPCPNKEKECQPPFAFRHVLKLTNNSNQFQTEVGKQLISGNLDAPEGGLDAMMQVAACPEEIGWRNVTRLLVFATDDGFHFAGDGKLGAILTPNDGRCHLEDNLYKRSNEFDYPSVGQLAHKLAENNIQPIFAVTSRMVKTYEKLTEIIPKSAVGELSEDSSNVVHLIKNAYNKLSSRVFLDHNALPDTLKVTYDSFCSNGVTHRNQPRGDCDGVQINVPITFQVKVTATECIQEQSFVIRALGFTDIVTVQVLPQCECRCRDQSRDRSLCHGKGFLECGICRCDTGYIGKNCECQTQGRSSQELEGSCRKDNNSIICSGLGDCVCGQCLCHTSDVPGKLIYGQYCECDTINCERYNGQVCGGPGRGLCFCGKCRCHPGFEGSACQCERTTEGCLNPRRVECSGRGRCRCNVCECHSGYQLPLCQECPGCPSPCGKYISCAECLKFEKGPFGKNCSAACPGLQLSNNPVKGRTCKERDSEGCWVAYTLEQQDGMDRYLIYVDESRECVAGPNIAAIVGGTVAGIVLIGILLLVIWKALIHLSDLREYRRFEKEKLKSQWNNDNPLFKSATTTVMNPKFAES

Row | SMILES | IC50 [nM]
1 | CN(CCO)C(=O)c1ccnc(C2(NC(=O)C3(NC(=O)c4cnc5n4[C@](C)(Cc4ccc(C#N)cc4)C(=O)N5c4cc(Cl)cc(Cl)c4)CC3)CC2)c1 [compound 34] | 0.7
2 | CC(NC(=O)c1ccnc(C2(NC(=O)C3(NC(=O)c4cnc5n4[C@](C)(Cc4ccc(C#N)cc4)C(=O)N5c4cc(Cl)cc(Cl)c4)CC3)CC2)c1)c1ccccn1 (some centres unmarked) [compound 149] | 0.29
3 | C[C@@]1(Cc2ccc(C#N)cc2)C(=O)N(c2cc(Cl)cc(Cl)c2)c2ncc(C(=O)NC3(C(=O)NC4(c5ccc(C(=O)NCCn6ccnc6)cn5)CC4)CC3)n21 [compound 109] | 0.41
4 | CC(=O)N1CCN(C(=O)c2cccc(C3(NC(=O)C4(NC(=O)c5cnc6n5[C@](C)(Cc5ccc(C#N)cc5)C(=O)N6c5cc(Cl)cc(Cl)c5)CC4)CC3)n2)CC1 [compound 22] | 2.1
5 | CC(C)(O)CNC(=O)c1ccnc(C2(NC(=O)C3(NC(=O)c4cnc5n4[C@](C)(Cc4ccc(C#N)cc4)C(=O)N5c4cc(Cl)cc(Cl)c4)CC3)CC2)c1 [compound 69] | 0.47
6 | CC(NC(=O)c1cccc(C2(NC(=O)C3(NC(=O)c4cnc5n4[C@](C)(Cc4ccc(C#N)cc4)C(=O)N5c4cc(Cl)cc(Cl)c4)CC3)CC2)n1)c1ccncc1 (some centres unmarked) [compound 151] | 1.3
7 | C[C@@]1(Cc2ccc(C#N)cc2)C(=O)N(c2cc(Cl)cc(Cl)c2)c2ncc(C(=O)NC3(C(=O)NC4(c5cccc(C(=O)N6CCC(C(N)=O)CC6)n5)CC4)CC3)n21 [compound 170] | 0.28
8 | C[C@@]1(Cc2ccc(C#N)cc2)C(=O)N(c2cc(Cl)cc(Cl)c2)c2ncc(C(=O)NC3(C(=O)NC4(c5ccc(C(=O)NCCN)cn5)CC4)CC3)n21 [compound 78] | 0.68
9 | C[C@@]1(Cc2ccc(C#N)cc2)C(=O)N(c2cc(Cl)cc(Cl)c2)c2ncc(C(=O)NC3(C(=O)NC4(c5ccc(C(=O)N6CCCC6)cn5)CC4)CC3)n21 [compound 119] | 0.72
10 | C[C@@H](NC(=O)c1cccc(C2(NC(=O)C3(NC(=O)c4cnc5n4[C@](C)(Cc4ccc(C#N)cc4)C(=O)N5c4cc(Cl)cc(Cl)c4)CC3)CC2)n1)C(N)=O [compound 83] | 1.3
11 | C[C@@]1(Cc2ccc(C#N)cc2)C(=O)N(c2cc(Cl)cc(Cl)c2)c2ncc(C(=O)NC3(C(=O)NC4(c5ccc(C(=O)N6CCOCC6)cn5)CC4)CC3)n21 [compound 42] | 0.35
12 | CC(=O)NC1CCN(C(=O)c2ccc(C3(NC(=O)C4(NC(=O)c5cnc6n5[C@](C)(Cc5ccc(C#N)cc5)C(=O)N6c5cc(Cl)cc(Cl)c5)CC4)CC3)nc2)C1 (some centres unmarked) [compound 158] | 0.9
13 | CN(CCO)C(=O)c1cccc(C2(NC(=O)C3(NC(=O)c4cnc5n4[C@](C)(Cc4ccc(C#N)cc4)C(=O)N5c4cc(Cl)cc(Cl)c4)CC3)CC2)n1 [compound 20] | 1
14 | CC(=O)NCCNC(=O)c1ccnc(C2(NC(=O)C3(NC(=O)c4cnc5n4[C@](C)(Cc4ccc(C#N)cc4)C(=O)N5c4cc(Cl)cc(Cl)c4)CC3)CC2)c1 [compound 132] | 0.37
15 | CCN(CC)C(=O)c1ccnc(C2(NC(=O)C3(NC(=O)c4cnc5n4[C@](C)(Cc4ccc(C#N)cc4)C(=O)N5c4cc(Cl)cc(Cl)c4)CC3)CC2)c1 [compound 138] | 0.67
16 | C[C@@]1(Cc2ccc(C#N)cc2)C(=O)N(c2cc(Cl)cc(Cl)c2)c2ncc(C(=O)NC3(C(=O)NC4(c5cc(C(=O)NCCc6ccncc6)ccn5)CC4)CC3)n21 [compound 144] | 0.34
17 | CC(C)(CO)NC(=O)c1ccc(C2(NC(=O)C3(NC(=O)c4cnc5n4[C@](C)(Cc4ccc(C#N)cc4)C(=O)N5c4cc(Cl)cc(Cl)c4)CC3)CC2)nc1 [compound 86] | 0.56
18 | C[C@H](O)CNC(=O)c1ccc(C2(NC(=O)C3(NC(=O)c4cnc5n4[C@](C)(Cc4ccc(C#N)cc4)C(=O)N5c4cc(Cl)cc(Cl)c4)CC3)CC2)nc1 [compound 99] | 0.52
19 | CC(=O)NCCNC(=O)c1cccc(C2(NC(=O)C3(NC(=O)c4cnc5n4[C@](C)(Cc4ccc(C#N)cc4)C(=O)N5c4cc(Cl)cc(Cl)c4)CC3)CC2)n1 [compound 68] | 0.5
20 | C[C@@]1(Cc2ccc(C#N)cc2)C(=O)N(c2cc(Cl)cc(Cl)c2)c2ncc(C(=O)NC3(C(=O)NC4(c5cccc(C(=O)N6CCOCC6)n5)CC4)CC3)n21 [compound 145] | 0.56
21 | C[C@@]1(Cc2ccc(C#N)cc2)C(=O)N(c2cc(Cl)cc(Cl)c2)c2ncc(C(=O)NC3(C(=O)NC4(c5ccc(C(=O)N6CCC6)cn5)CC4)CC3)n21 [compound 90] | 0.29

Row | SMILES | IC50 [nM]
22 | CC(=O)N1CCN(C(=O)c2ccc(C3(NC(=O)C4(NC(=O)c5cnc6n5[C@](C)(Cc5ccc(C#N)cc5)C(=O)N6c5cc(Cl)cc(Cl)c5)CC4)CC3)nc2)CC1 [compound 171] | 1.3
23 | C[C@@]1(Cc2ccc(C#N)cc2)C(=O)N(c2cc(Cl)cc(Cl)c2)c2ncc(C(=O)NC3(C(=O)NC4(c5cccc(C(=O)NCc6ccccc6)n5)CC4)CC3)n21 [compound 25] | 32
24 | C[C@H](NC(=O)c1cccc(C2(NC(=O)C3(NC(=O)c4cnc5n4[C@](C)(Cc4ccc(C#N)cc4)C(=O)N5c4cc(Cl)cc(Cl)c4)CC3)CC2)n1)c1ccccc1 [compound 165] | 0.3
25 | C[C@@]1(Cc2ccc(C#N)cc2)C(=O)N(c2cc(Cl)cc(Cl)c2)c2ncc(C(=O)NC3(C(=O)NC4(c5cc(C(=O)N6CCC[C@H]6C(N)=O)ccn5)CC4)CC3)n21 [compound 122] | 1.7
26 | C[C@@]1(Cc2ccc(C#N)cc2)C(=O)N(c2cc(Cl)cc(Cl)c2)c2ncc(C(=O)NC3(C(=O)NC4(c5cc(C(=O)N6CCN(S(C)(=O)=O)CC6)ccn5)CC4)CC3)n21 [compound 89] | 1.4
27 | CN(CCO)C(=O)c1ccc(C2(NC(=O)C3(NC(=O)c4cnc5n4[C@](C)(Cc4ccc(C#N)cc4)C(=O)N5c4cc(Cl)cc(Cl)c4)CC3)CC2)nc1 [compound 154] | 1
28 | C[C@@]1(Cc2ccc(C#N)cc2)C(=O)N(c2cc(Cl)cc(Cl)c2)c2ncc(C(=O)NC3(C(=O)NC4(c5cccc(C(=O)N6CC(O)C6)n5)CC4)CC3)n21 [compound 51] | 0.58
29 | C[C@@]1(Cc2ccc(C#N)cc2)C(=O)N(c2cc(Cl)cc(Cl)c2)c2ncc(C(=O)NC3(C(=O)NC4(c5cc(C(=O)NCCc6cccnc6)ccn5)CC4)CC3)n21 [compound 95] | 1
30 | C[C@@]1(Cc2ccc(C#N)cc2)C(=O)N(c2cc(Cl)cc(Cl)c2)c2ncc(C(=O)NC3(C(=O)NC4(c5cc(C(=O)NCC(=O)O)ccn5)CC4)CC3)n21 [compound 131] | 0.45
31 | C[C@@]1(Cc2ccc(C#N)cc2)C(=O)N(c2cc(Cl)cc(Cl)c2)c2ncc(C(=O)NC3(C(=O)NC4(c5cc(C(=O)NC(CO)CO)ccn5)CC4)CC3)n21 [compound 129] | 0.55
32 | CC(=O)N(C)C1CCN(C(=O)c2ccc(C3(NC(=O)C4(NC(=O)c5cnc6n5[C@](C)(Cc5ccc(C#N)cc5)C(=O)N6c5cc(Cl)cc(Cl)c5)CC4)CC3)nc2)C1 (some centres unmarked) [compound 116] | 0.75
33 | C[C@@]1(Cc2ccc(C#N)cc2)C(=O)N(c2cc(Cl)cc(Cl)c2)c2ncc(C(=O)NC3(C(=O)NC4(c5cccc(C(=O)NCc6cccnc6)n5)CC4)CC3)n21 [compound 162] | 2.3
34 | CC(NC(=O)c1cccc(C2(NC(=O)C3(NC(=O)c4cnc5n4[C@](C)(Cc4ccc(C#N)cc4)C(=O)N5c4cc(Cl)cc(Cl)c4)CC3)CC2)n1)c1cccnc1 (some centres unmarked) [compound 47] | 3.9
35 | CC(CO)NC(=O)c1ccnc(C2(NC(=O)C3(NC(=O)c4cnc5n4[C@](C)(Cc4ccc(C#N)cc4)C(=O)N5c4cc(Cl)cc(Cl)c4)CC3)CC2)c1 (some centres unmarked) [compound 120] | 0.75
36 | CN1CCN(C(=O)c2ccc(C3(NC(=O)C4(NC(=O)c5cnc6n5[C@](C)(Cc5ccc(C#N)cc5)C(=O)N6c5cc(Cl)cc(Cl)c5)CC4)CC3)nc2)CC1 [compound 37] | 2.4
37 | C[C@@]1(Cc2ccc(C#N)cc2)C(=O)N(c2cc(Cl)cc(Cl)c2)c2ncc(C(=O)NC3(C(=O)NC4(c5cccc(C(=O)N6CCC(CO)CC6)n5)CC4)CC3)n21 [compound 18] | 1.8
38 | C[C@H](CO)NC(=O)c1ccc(C2(NC(=O)C3(NC(=O)c4cnc5n4[C@](C)(Cc4ccc(C#N)cc4)C(=O)N5c4cc(Cl)cc(Cl)c4)CC3)CC2)nc1 [compound 141] | 0.8
39 | C[C@@]1(Cc2ccc(C#N)cc2)C(=O)N(c2cc(Cl)cc(Cl)c2)c2ncc(C(=O)NC3(C(=O)NC4(c5cccc(C(=O)NCC(N)=O)n5)CC4)CC3)n21 [compound 127] | 0.5
40 | CC(C)(NC(=O)c1ccnc(C2(NC(=O)C3(NC(=O)c4cnc5n4[C@](C)(Cc4ccc(C#N)cc4)C(=O)N5c4cc(Cl)cc(Cl)c4)CC3)CC2)c1)c1ccccc1 [compound 108] | 3
41 | CC(C)(NC(=O)c1ccc(C2(NC(=O)C3(NC(=O)c4cnc5n4[C@](C)(Cc4ccc(C#N)cc4)C(=O)N5c4cc(Cl)cc(Cl)c4)CC3)CC2)nc1)c1ccccc1 [compound 152] | 0.62
